From EP4501917A1, “3,4-DIHYDROQUINOXALINE-2-CARBOXIMIDE DERIVATIVE COMPOUND AND PHARMACEUTICAL COMPOSITION COMPRISING SAME FOR PREVENTING OR TREATING CANCER DISEASE” (Daegu-Gyeongbuk Medical Innovation Foundation, priority 2022, dated 2023)

Experiments:
Liver cancer cells Huh-7 = assay: Liver cancer cell growth inhibition, CellTiter-Glo Luminescent Cell Viability Assay; format: cell-based; settings: Huh-7 cells, various concentrations, day 1, FIG. 6; result in words
Method: In addition, an analysis of liver cancer growth inhibitory activity was performed. Liver cancer cells Huh-7 cells were dispensed in a 96-well plate at 1 × 10^4 cells/ml, and after 20 hours, PCI34051, Example 27, and Example 35 were added at various concentrations, and cultured for 24 and 48 hours at 37°C in a 5% CO2 atmosphere. After culturing, 100 µl CellTiter-Glo Luminescent Cell Viability Assay reagent was added and the luminescence signal was measured after 0.5-1 hour. The luminescence signal was measured using IVIS [PerkinElmer, (Waltham, USA)].

HDAC8 = target: T1, HDAC8 (Homo sapiens, UniProt Q9BY41); assay: HDAC8 inhibitory activity analysis (in vitro), RFU analysis, HDAC Fluorogenic assay kit; format: biochemical; settings: for RFU (%): compound final concentration 10 µM, HDAC substrate 2A 20 µM, positive control (1% DMSO) set to 100, lower = more inhibition; for inhibitory activity against HDAC8: result in words, summary of Table 2, 10 µM
T1 construct: purchased BPS bioscience
T1 sequence (Q9BY41 1-377): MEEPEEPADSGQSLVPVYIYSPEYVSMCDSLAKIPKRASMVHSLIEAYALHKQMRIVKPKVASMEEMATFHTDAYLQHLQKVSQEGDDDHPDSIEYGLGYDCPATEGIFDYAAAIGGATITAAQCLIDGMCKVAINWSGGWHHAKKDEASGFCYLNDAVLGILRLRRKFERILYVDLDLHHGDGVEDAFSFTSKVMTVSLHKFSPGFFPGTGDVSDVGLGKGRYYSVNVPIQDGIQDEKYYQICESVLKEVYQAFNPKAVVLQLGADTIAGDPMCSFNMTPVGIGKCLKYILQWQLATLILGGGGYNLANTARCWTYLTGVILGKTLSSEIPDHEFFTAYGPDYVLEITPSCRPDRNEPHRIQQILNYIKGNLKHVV
Method: The compound of the Example was diluted to 1 mM (1% DMSO concentration) using DMSO to obtain a final concentration of 10 µM, and prepared by diluting 1/10 with assay buffer. In a 96-well black round-bottom plate, 5 µL of the diluted compound of the Example, 5 µL of the diluted HDAC substrate 2A, 5 µL of BSA (1 mg/mL), 5 µL of the HDAC8 enzyme diluted to an appropriate concentration, and 30 µL of assay buffer were added, and the enzyme reaction was performed at 37°C for 30 minutes. […] Afterwards, 50 µL of 2X HDAC developer was added to each well. After reacting for 15 minutes at room temperature, the fluorescence values at excitation wavelengths of 350-380 nm and emission wavelengths of 440-460 nm were measured using a microplate reader (Synergy Neo).

[1] = tested on: PC-3 prostate cancer cells; assay: Prostate cancer cell growth inhibition, CCK-8 assay; format: cell-based, human; settings: PC-3 cells, FIG. 1, result in words
Method: PC-3, a human-derived prostate cancer cell line, was cultured with RPMI1640 (10% fetal bovine serum, 1% Penicillin Streptomycin) culture medium at 37°C, 5% CO2 condition. All cells in the experiment were subcultured when they reached a confluency of approximately 80% to 90%, and only cells that had not passed 20 passages were used.
After culturing, 10 µL CCK-8 reagent was added and the absorbance was measured after 1 hour. The absorbance was measured at 450 nm using a microplate reader [BMG Labtech (Offenburg, Germany)].

COc1ccc(Cn2ccc3ccc(C(=O)NO)cc32)cc1 [PCI-34051, N-hydroxy-1-(4-methoxybenzyl)-1H-indole-6-carboxamide, reference compound]
cell viability (Liver cancer cells Huh-7): concentration-dependent inhibition of cancer cell viability
RFU (%) (HDAC8): 1.86%

Cc1cc2nc(C(=O)Nc3cc(C(=O)NO)ccc3C)c(=O)n(C[C@H](O)[C@H](O)[C@H](O)CO)c2cc1C [Example 51, N-(5-(hydroxycarbamoyl)-2-methylphenyl)-6,7-dimethyl-3-oxo-4-((2S,3S,4R)-2,3,4,5-tetrahydroxypentyl)-3,4-dihydroquinoxaline-2-carboxamide]
RFU (%) (HDAC8): 5.81%
inhibitory activity against HDAC8 (HDAC8): inhibitory activity similar to TSA or SAHA

Cc1cc2nc(C(=O)NCc3ccc(Cl)c(Cl)c3)c(=O)n(C[C@H](O)[C@H](O)[C@H](O)CO)c2cc1C [Example 8, N-(3,4-dichlorobenzyl)-6,7-dimethyl-3-oxo-4-((2S,3S,4R)-2,3,4,5-tetrahydroxypentyl)-3,4-dihydroquinoxaline-2-carboxamide]
RFU (%) (HDAC8): 85.37%

Cc1cc2nc(C(=O)NC3CCC(C(=O)NO)C3)c(=O)n(C[C@H](O)[C@H](O)[C@H](O)CO)c2cc1C (stereo partly drawn) [Example 52, N-(3-(hydroxycarbamoyl)cyclopentyl)-6,7-dimethyl-3-oxo-4-((2S,3S,4R)-2,3,4,5-tetrahydroxypentyl)-3,4-dihydroquinoxaline-2-carboxamide]
RFU (%) (HDAC8): 41.96%

Cc1cc2nc(C(=O)Nc3nnc(-c4ccc(Br)cc4)s3)c(=O)n(C[C@H](O)[C@H](O)[C@H](O)CO)c2cc1C [Example 11, N-(5-(4-bromophenyl)-1,3,4-thiadiazol-2-yl)-6,7-dimethyl-3-oxo-4-((2S,3S,4R)-2,3,4,5-tetrahydroxypentyl)-3,4-dihydroquinoxaline-2-carboxamide]
RFU (%) (HDAC8): 63.24%

Cc1cc2nc(C(=O)NCc3ccc4[nH]cnc4c3)c(=O)n(C[C@H](O)[C@H](O)[C@H](O)CO)c2cc1C [Example 34, N-((1H-benzo[d]imidazol-5-yl)methyl)-6,7-dimethyl-3-oxo-4-((2S,3S,4R)-2,3,4,5-tetrahydroxypentyl)-3,4-dihydroquinoxaline-2-carboxamide]
RFU (%) (HDAC8): 34.05%
inhibitory activity against HDAC8 (HDAC8): inhibitory activity similar to TSA or SAHA

Cc1cc2nc(C(=O)Nc3nc4c(F)cccc4[nH]3)c(=O)n(C[C@H](O)[C@H](O)[C@H](O)CO)c2cc1C [Example 35, N-(4-fluoro-1H-benzo[d]imidazol-2-yl)-6,7-dimethyl-3-oxo-4-((2S,3S,4R)-2,3,4,5-tetrahydroxypentyl)-3,4-dihydroquinoxaline-2-carboxamide]
cell viability ([1]; after 24 hours): concentration-dependent inhibition of cancer cell viability
cell viability ([1]; after 48 hours): cell viability was restored
cell viability (Liver cancer cells Huh-7): concentration-dependent inhibition of cancer cell viability
RFU (%) (HDAC8): 8.23%
inhibitory activity against HDAC8 (HDAC8): inhibitory activity similar to TSA or SAHA

Cc1cc2nc(C(=O)Nc3cc(-c4ccc(Br)cc4)n[nH]3)c(=O)n(C[C@H](O)[C@H](O)[C@H](O)CO)c2cc1C [Example 12, N-(3-(4-bromophenyl)-1H-pyrazol-5-yl)-6,7-dimethyl-3-oxo-4-((2S,3S,4R)-2,3,4,5-tetrahydroxypentyl)-3,4-dihydroquinoxaline-2-carboxamide]
RFU (%) (HDAC8): 58.97%

O=C(CCCCCCC(=O)Nc1ccccc1)NO [SAHA, suberoylanilide hydroxamic acid, reference compound]
RFU (%) (HDAC8): 38.57%

Cc1cc2nc(C(=O)Nc3ccc(C(=O)NO)cc3)c(=O)n(C[C@H](O)[C@H](O)[C@H](O)CO)c2cc1C [Example 48, N-(4-(hydroxycarbamoyl)phenyl)-6,7-dimethyl-3-oxo-4-((2S,3S,4R)-2,3,4,5-tetrahydroxypentyl)-3,4-dihydroquinoxaline-2-carboxamide]
RFU (%) (HDAC8): 10.48%
inhibitory activity against HDAC8 (HDAC8): inhibitory activity similar to TSA or SAHA

COC(=O)C1CCC(NC(=O)c2nc3cc(C)c(C)cc3n(C[C@H](O)[C@H](O)[C@H](O)CO)c2=O)C1 (stereo partly drawn) [Example 33, methyl 3-(6,7-dimethyl-3-oxo-4-((2S,3S,4R)-2,3,4,5-tetrahydroxypentyl)-3,4-dihydroquinoxaline-2-carboxamido)cyclopentane-1-carboxylate]
RFU (%) (HDAC8): 69.48%

Cc1cc2nc(C(=O)NCc3nc4ccccc4[nH]3)c(=O)n(C[C@H](O)[C@H](O)[C@H](O)CO)c2cc1C [Example 24, N-((1H-benzo[d]imidazol-2-yl)methyl)-6,7-dimethyl-3-oxo-4-((2S,3S,4R)-2,3,4,5-tetrahydroxypentyl)-3,4-dihydroquinoxaline-2-carboxamide]
RFU (%) (HDAC8): 42.03%

Cc1cc2nc(C(=O)NCc3cccc(C(=O)NO)c3)c(=O)n(C[C@H](O)[C@H](O)[C@H](O)CO)c2cc1C [Example 50, N-(3-(hydroxycarbamoyl)benzyl)-6,7-dimethyl-3-oxo-4-((2S,3S,4R)-2,3,4,5-tetrahydroxypentyl)-3,4-dihydroquinoxaline-2-carboxamide]
RFU (%) (HDAC8): 51.23%

Cc1cc2nc(C(=O)NCCc3ccc(Cl)cc3Cl)c(=O)n(C[C@H](O)[C@H](O)[C@H](O)CO)c2cc1C [Example 9, N-(2,4-dichlorophenethyl)-6,7-dimethyl-3-oxo-4-((2S,3S,4R)-2,3,4,5-tetrahydroxypentyl)-3,4-dihydroquinoxaline-2-carboxamide]
RFU (%) (HDAC8): 66.28%

Cc1cc2nc(C(=O)Nc3cc(-c4ccc(Br)cc4)no3)c(=O)n(C[C@H](O)[C@H](O)[C@H](O)CO)c2cc1C [Example 10, N-(3-(4-bromophenyl)isoxazol-5-yl)-6,7-dimethyl-3-oxo-4-((2S,3S,4R)-2,3,4,5-tetrahydroxypentyl)-3,4-dihydroquinoxaline-2-carboxamide]
RFU (%) (HDAC8): 16.61%
inhibitory activity against HDAC8 (HDAC8): inhibitory activity similar to TSA or SAHA

Cc1cc2nc(C(=O)NCc3cc(Cl)cc(Cl)c3)c(=O)n(C[C@H](O)[C@H](O)[C@H](O)CO)c2cc1C [Example 7, N-(3,5-dichlorobenzyl)-6,7-dimethyl-3-oxo-4-((2S,3S,4R)-2,3,4,5-tetrahydroxypentyl)-3,4-dihydroquinoxaline-2-carboxamide]
RFU (%) (HDAC8): 54.79%

Cc1cc2nc(C(=O)NCc3ccc(CC(=O)NO)cc3)c(=O)n(C[C@H](O)[C@H](O)[C@H](O)CO)c2cc1C [Example 49, N-(4-(2-(hydroxyamino)-2-oxoethyl)benzyl)-6,7-dimethyl-3-oxo-4-((2S,3S,4R)-2,3,4,5-tetrahydroxypentyl)-3,4-dihydroquinoxaline-2-carboxamide]
RFU (%) (HDAC8): 35.15%
inhibitory activity against HDAC8 (HDAC8): inhibitory activity similar to TSA or SAHA

Cc1cc2nc(C(=O)NCc3ccc(C(=O)NO)cc3)c(=O)n(C[C@H](O)[C@H](O)[C@H](O)CO)c2cc1C [Example 47, N-(4-(hydroxycarbamoyl)benzyl)-6,7-dimethyl-3-oxo-4-((2S,3S,4R)-2,3,4,5-tetrahydroxypentyl)-3,4-dihydroquinoxaline-2-carboxamide]
RFU (%) (HDAC8): 53.58%

Cc1cc2nc(C(=O)NCc3ccc(F)cc3)c(=O)n(C[C@H](O)[C@H](O)[C@H](O)CO)c2cc1C [Example 4, N-(4-fluorobenzyl)-6,7-dimethyl-3-oxo-4-((2S,3S,4R)-2,3,4,5-tetrahydroxypentyl)-3,4-dihydroquinoxaline-2-carboxamide]
RFU (%) (HDAC8): 85.71%
